Experiment [1] concerns the target T1, human phosphoinositide-3 kinase (PI3K) delta (Homo sapiens, UniProt O00329).
T1 construct: myristoylation signal (myristoylated form); expressed in transfected cells
As to the kind of experiment: PI3K-mediated Akt 1/2 (S473) phosphorylation in Rat-1 cells (Cell PI3Kδ). Conditions: Rat-1 cells overexpressing myristoylated human PI3K delta; p-Akt (Ser473). In kind it is cell-based. The protocol:
2.1 Phosphoinositide-3 kinase (PI3K)-mediated Akt 1/2 (S473) phosphorylation in Rat-1 cells
Rat-1 cells stably overexpressing a myristoylated form of the catalytic subunit of human phosphoinositide-3 kinase (PI3K) alpha, beta or delta were plated in 384-well plates at a density of 7500 (PI3K alpha), 6200 (PI3K beta), or 4000 (PI3K delta) cells in 30 ul complete growth medium (Dulbecco's modified Eagle's medium (DMEM high glucose) supplemented with 10% (v/v) fetal bovine serum, 1% (v/v) MEM non essential amino acids, 10 mM HEPES, 2 mM L-glutamine, 10 μg/mL puromycin and 1% (v/v) Penicillin/Streptomycin) and were incubated at […]/5% CO2/95% humidity for 24 h. Compounds were diluted in 384-well compound plates to obtain 8-point serial dilutions for 40 test compounds in 90% DMSO, as well as 4 reference compounds plus 16 high controls and 16 low (inhibited) controls. Predilution plates were prepared by dispensing pipetting 250 nl of compound solutions into 384-well polypropylen plates using a Hummingwell nanoliter dispensor. Compounds were prediluted by the addition of 49.75 ul complete growth medium. 10 ul of prediluted compound solution were transferred to the cell plate using a 384-well pipettor, resulting in a final DMSO concentration of 0.11%. Cells were incubated for 1 h at […]/5% CO2/95% humidity. The supernatant was removed, the cells were lysed in 20 ul of lysis buffer for AlphaScreen® SureFire® detection.
For detection of p-AKT(Ser473), the SureFire® p-Akt 1/2 (Ser473) Assay Kit (PerkinElmer, U.S.A) was used. 5 ul of cell lysate was transferred to 384-well low volume Proxiplates for detection using a 384-well pipettor. Addition of AlphaScreen® SureFire® reagents was done according to the manufacturer's protocol. First, 5 ul of reaction buffer plus activation buffer mix containing AlphaScreen® acceptor beads was added, the plate was sealed, and incubated on a plate shaker for 2 hours at room temperature. Second, 2 ul of dilution buffer containing AlphaScreen® donor beads was added, and the plate was incubated on plate shaker as above for a further 2 hours. The plate was read on an AlphaScreen® compatible plate reader, using standard AlphaScreen® settings.

A further experiment has as its target T2, PI3K alpha (Homo sapiens, UniProt P42336).
T2 construct: His tag (C); made in house; host or cells: baculovirus; Tn5 (Trichoplusia ni) or TiniPro insect cells
Description: Enzymatic PI3K alpha isoform inhibition (lipid kinase activity, Kinase-Glo). In kind it is biochemical. The conditions noted are these: enzymatic assay. The gist of the method:
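Lipid kinase reaction with 10 nM PI3Kα, 1 μM ATP and 10 μg/mL phosphatidylinositol in pH 7.5 Tris with MgCl2, NaCl, CHAPS and DTT, run 60 min at room temperature. Remaining ATP read by Kinase-Glo luminescence. IC50 from 8-point 4-parameter logistic fits.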
Background: Kinase-Glo reads ATP consumption through a luciferase reaction.

T1 sequence (O00329 whole entry): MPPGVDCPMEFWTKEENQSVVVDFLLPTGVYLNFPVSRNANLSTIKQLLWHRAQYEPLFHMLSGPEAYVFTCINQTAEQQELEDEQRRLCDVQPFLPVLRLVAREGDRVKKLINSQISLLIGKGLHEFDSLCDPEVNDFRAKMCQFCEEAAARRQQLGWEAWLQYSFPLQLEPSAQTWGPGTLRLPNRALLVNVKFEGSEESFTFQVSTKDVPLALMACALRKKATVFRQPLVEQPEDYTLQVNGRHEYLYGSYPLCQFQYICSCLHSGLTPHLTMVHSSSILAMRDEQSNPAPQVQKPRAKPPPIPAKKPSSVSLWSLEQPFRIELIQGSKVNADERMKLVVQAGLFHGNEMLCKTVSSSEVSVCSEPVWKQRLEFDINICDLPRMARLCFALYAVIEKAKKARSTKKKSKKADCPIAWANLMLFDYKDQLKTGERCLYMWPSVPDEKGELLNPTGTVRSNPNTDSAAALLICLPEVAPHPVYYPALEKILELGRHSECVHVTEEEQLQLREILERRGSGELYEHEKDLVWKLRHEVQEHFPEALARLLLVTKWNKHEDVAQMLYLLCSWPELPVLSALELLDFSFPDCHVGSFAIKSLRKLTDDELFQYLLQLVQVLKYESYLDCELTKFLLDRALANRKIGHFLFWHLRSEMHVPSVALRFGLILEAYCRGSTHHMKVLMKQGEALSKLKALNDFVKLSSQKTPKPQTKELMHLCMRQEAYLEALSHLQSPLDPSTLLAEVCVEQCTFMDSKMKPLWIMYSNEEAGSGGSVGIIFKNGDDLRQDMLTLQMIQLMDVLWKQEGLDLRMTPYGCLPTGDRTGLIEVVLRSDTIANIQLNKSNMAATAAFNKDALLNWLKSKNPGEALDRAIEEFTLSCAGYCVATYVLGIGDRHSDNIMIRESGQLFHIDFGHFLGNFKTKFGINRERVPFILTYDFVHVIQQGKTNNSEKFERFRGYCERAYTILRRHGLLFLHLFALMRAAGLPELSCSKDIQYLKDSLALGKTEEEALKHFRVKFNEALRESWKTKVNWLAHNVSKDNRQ
T1 sequence (Q63787 whole entry partner): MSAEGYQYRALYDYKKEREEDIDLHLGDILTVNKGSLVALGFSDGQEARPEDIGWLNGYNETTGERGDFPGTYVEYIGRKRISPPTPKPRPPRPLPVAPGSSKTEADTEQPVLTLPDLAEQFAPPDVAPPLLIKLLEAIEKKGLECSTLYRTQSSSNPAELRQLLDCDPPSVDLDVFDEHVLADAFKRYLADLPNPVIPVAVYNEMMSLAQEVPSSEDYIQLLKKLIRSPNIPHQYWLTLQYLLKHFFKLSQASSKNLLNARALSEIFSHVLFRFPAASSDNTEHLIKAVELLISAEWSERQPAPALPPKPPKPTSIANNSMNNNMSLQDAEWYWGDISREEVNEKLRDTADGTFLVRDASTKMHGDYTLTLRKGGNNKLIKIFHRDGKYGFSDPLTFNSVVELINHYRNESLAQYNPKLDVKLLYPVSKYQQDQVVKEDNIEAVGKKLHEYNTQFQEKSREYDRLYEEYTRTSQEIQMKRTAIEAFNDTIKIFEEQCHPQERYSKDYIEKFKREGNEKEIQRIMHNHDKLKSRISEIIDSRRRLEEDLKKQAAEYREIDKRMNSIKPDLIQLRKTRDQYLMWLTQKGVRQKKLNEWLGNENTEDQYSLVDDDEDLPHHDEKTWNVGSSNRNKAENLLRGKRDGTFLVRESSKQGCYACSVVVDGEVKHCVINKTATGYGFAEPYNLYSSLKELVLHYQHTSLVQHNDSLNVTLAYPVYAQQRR
T2 sequence (P42336 with tags, fused parts or gaps limits assumed): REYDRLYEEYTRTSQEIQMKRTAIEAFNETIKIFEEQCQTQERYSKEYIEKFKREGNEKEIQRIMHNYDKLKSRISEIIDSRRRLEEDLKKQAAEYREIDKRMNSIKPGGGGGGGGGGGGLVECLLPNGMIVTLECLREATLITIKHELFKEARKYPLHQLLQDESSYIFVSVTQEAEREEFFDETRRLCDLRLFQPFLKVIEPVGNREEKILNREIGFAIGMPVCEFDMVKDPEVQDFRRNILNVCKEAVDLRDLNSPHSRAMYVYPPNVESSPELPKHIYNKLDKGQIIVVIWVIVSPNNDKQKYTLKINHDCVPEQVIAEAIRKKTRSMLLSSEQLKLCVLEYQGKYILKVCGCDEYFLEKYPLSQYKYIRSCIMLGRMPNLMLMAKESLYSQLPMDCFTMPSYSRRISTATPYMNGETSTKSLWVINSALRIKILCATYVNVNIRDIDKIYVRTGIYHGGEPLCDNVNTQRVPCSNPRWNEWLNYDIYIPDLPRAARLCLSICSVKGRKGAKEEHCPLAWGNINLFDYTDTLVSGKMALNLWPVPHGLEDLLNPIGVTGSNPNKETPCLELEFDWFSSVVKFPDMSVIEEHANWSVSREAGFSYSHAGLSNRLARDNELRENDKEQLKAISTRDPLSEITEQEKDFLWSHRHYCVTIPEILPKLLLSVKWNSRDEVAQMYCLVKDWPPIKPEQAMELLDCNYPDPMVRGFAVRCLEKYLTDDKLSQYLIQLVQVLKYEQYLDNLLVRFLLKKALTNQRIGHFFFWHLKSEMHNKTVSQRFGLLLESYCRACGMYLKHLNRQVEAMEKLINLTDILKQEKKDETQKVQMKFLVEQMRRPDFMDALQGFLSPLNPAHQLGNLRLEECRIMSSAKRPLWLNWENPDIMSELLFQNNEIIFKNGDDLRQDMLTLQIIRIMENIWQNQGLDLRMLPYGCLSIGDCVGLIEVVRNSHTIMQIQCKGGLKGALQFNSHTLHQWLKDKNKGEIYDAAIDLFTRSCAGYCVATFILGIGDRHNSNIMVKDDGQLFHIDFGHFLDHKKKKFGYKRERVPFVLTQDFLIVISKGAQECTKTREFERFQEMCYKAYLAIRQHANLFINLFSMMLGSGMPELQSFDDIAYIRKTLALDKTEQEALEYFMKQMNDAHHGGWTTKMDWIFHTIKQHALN

Turning to `Cc1cc(-c2ccnc3cc(F)c(O[C@H]4CCN(C(=O)C5CCOCC5)C4)cc23)cnc1S(C)(=O)=O` [Example C2, {(S)-3-[7-Fluoro-4-(6-methanesulfonyl-5-methyl-pyridin-3-yl)-quinolin-6-yloxy]-pyrrolidin-1-yl}-(tetrahydro-pyran-4-yl)-methanone], the half-maximal inhibitory concentration (IC50) (usually the concentration needed to halve the response being measured) in experiment [1] amounted to 116 nM; at PI3K alpha, 5680 nM.
The matching figures for `CCC(=O)N1CC[C@H](Oc2ccc3nccc(-c4cnc(S(C)(=O)=O)c(C)c4)c3c2)C1` [Example A25, 1-{(S)-3-[4-(6-Methanesulfonyl-5-methyl-pyridin-3-yl)-quinolin-6-yloxy]-pyrrolidin-1-yl}-propan-1-one]: 260 nM and 821 nM.
For `COc1ncc(-c2ccnc3ccc(O[C@H]4CCN(C(=O)C5CCS(=O)(=O)CC5)C4)cc23)cc1C` [Example A15, (1,1-Dioxo-hexahydro-1lambda*6*-thiopyran-4-yl)-{(S)-3-[4-(6-methoxy-5-methyl-pyridin-3-yl)-quinolin-6-yloxy]-pyrrolidin-1-yl}-methanone], the half-maximal inhibitory concentration (IC50) turned out to be 52 nM in experiment [1] and 186 nM on PI3K alpha.
On to `COc1ncc(-c2ccnc3ccc(O[C@H]4CCN(C(=O)[C@@H]5CCN(C(C)=O)C5)C4)cc23)cc1C` [Example A10, 1-((R)-3-{(S)-3-[4-(6-Methoxy-5-methyl-pyridin-3-yl)-quinolin-6-yloxy]-pyrrolidine-1-carbonyl}-pyrrolidin-1-yl)-ethanone], for which the IC50 in experiment [1] stood at 16 nM; on PI3K alpha it was 1360 nM.
`COc1ncc(-c2ccnc3ccc(O[C@H]4CCN(C(=O)C5CCS(=O)(=O)CC5)C4)c(C)c23)cc1C` [Example B3, (1,1-Dioxo-hexahydro-1lambda*6*-thiopyran-4-yl)-{(S)-3-[4-(6-methoxy-5-methyl-pyridin-3-yl)-5-methyl-quinolin-6-yloxy]-pyrrolidin-1-yl}-methanone]: the IC50 in experiment [1] was determined as 105 nM; at PI3K alpha, 498 nM.
Take `COc1ncc(-c2ccnc3ccc(O[C@H]4CCN(C(=O)[C@@H]5CCN(C(C)=O)C5)C4)cc23)cc1C(F)F` [Example A24, 1-((R)-3-{(S)-3-[4-(5-Difluoromethyl-6-methoxy-pyridin-3-yl)-quinolin-6-yloxy]-pyrrolidine-1-carbonyl}-pyrrolidin-1-yl)-ethanone]: the IC50 was 14 nM in experiment [1] and 67 nM at PI3K alpha.
With `COc1ncc(-c2ccnc3cc(F)c(O[C@H]4CCN(C(=O)C5CCS(=O)(=O)CC5)C4)cc23)cc1C` [Example C1, (1,1-Dioxo-hexahydro-1lambda*6*-thiopyran-4-yl)-{(S)-3-[7-fluoro-4-(6-methoxy-5-methyl-pyridin-3-yl)-quinolin-6-yloxy]-pyrrolidin-1-yl}-methanone], the 50% inhibitory concentration (IC50) worked out at 246 nM in experiment [1] and 3110 nM at PI3K alpha.
For `COc1ncc(-c2ccnc3ccc(O[C@H]4CCN(C(=O)C5CCS(=O)(=O)CC5)C4)cc23)cc1Cl` [Example A1, {(S)-3-[4-(5-Chloro-6-methoxy-pyridin-3-yl)-quinolin-6-yloxy]-pyrrolidin-1-yl}-(1,1-dioxo-hexahydro-1lambda*6*-thiopyran-4-yl)-methanone] the same measures were 32 nM and 77 nM.
The matching figures for `COc1ncc(-c2ccnc3ccc(O[C@H]4CCN(C(=O)[C@@H]5CCN(C(C)=O)C5)C4)c(C)c23)cc1C(F)F` [Example B1, 1-((R)-3-{(S)-3-[4-(5-Difluoromethyl-6-methoxy-pyridin-3-yl)-5-methylquinolin-6-yloxy]-pyrrolidine-1-carbonyl}-pyrrolidin-1-yl)-ethanone]: 14 nM and 63 nM.
For `COc1ncc(-c2ccnc3ccc(O[C@H]4CCN(C(=O)C5CCS(=O)(=O)CC5)C4)cc23)cc1C(F)F` [Example A6, {(S)-3-[4-(5-Difluoromethyl-6-methoxy-pyridin-3-yl)-quinolin-6-yloxy]-pyrrolidin-1-yl}-(1,1-dioxo-hexahydro-1lambda*6*-thiopyran-4-yl)-methanone], the IC50 turned out to be 78 nM in experiment [1] and 53 nM on PI3K alpha.

Values taken from patent publication US20150148377A1, “Quinoline Derivatives” (NOVARTIS AG, priority 2011, published 2015).
